Results on 26 molecules are retold here after ChEMBL document CHEMBL1136236, “Design and parallel synthesis of piperidine libraries targeting the nociceptin (N/OFQ) receptor” (Bioorg Med Chem Lett, 2003).

Assay [1] deals with T1, Delta-type opioid receptor (Homo sapiens, UniProt P41143). Nature of the assay: Antagonistic activity against Opioid receptor delta 1; not active. It is filed as functional.
Assay [2] deals with T2, Nociceptin receptor (Homo sapiens, UniProt P41146). Kind of assay: Antagonistic activity against orphan FQ receptor. It is filed as functional.
Assay [3] has as its target T3, Kappa-type opioid receptor (Homo sapiens, UniProt P41145). Kind of assay: Antagonistic activity against opioid receptor kappa 1. It is filed as functional.
In assay [4] the target is T4, Mu-type opioid receptor (Homo sapiens, UniProt P35372). Nature of the assay: Antagonistic activity against opioid receptor mu1. The format is functional.
Assay [5] has as its target T4, Mu-type opioid receptor. Nature of the assay: Selectivity ratio of Opioid receptor mu 1 binding to Orphanin FQ receptor.
The target of assay [6] is T2, Nociceptin receptor. Nature of the assay: Inhibitory activity against human orphanin FQ receptor expressed in recombinant HEK 293 cells. It is filed as cell-based. More on the design: concentration or dose not given beside the values. Conditions: HEK293; concentration not given here.
Assay [7] addresses T2, Nociceptin receptor. Nature of the assay: Binding affinity against human orphanin FQ receptor expressed in recombinant HEK 293 cells. The format is cell-based, HEK293.
The target of assay [8] is T3, Kappa-type opioid receptor. Kind of assay: Antagonistic activity against opioid receptor kappa 1; not active. The format is functional.
In assay [9] the target is T1, Delta-type opioid receptor. Kind of assay: Antagonistic activity against Opioid receptor delta 1. It is filed as functional.
In assay [10] the target is T2, Nociceptin receptor. Nature of the assay: Inhibitory activity against human orphanin FQ receptor expressed in recombinant HEK 293 cells; in active. It is filed as cell-based. The note with it: HEK293.
Assay [11] has as its target T2, Nociceptin receptor. Nature of the assay: Inhibitory activity against human orphanin FQ receptor expressed in recombinant HEK 293 cells; inactive. It is filed as cell-based. The note with it: HEK293.

Active and inactive are the calls of the source. The rule behind the calls is not given here.

T4 sequence (P35372 whole entry): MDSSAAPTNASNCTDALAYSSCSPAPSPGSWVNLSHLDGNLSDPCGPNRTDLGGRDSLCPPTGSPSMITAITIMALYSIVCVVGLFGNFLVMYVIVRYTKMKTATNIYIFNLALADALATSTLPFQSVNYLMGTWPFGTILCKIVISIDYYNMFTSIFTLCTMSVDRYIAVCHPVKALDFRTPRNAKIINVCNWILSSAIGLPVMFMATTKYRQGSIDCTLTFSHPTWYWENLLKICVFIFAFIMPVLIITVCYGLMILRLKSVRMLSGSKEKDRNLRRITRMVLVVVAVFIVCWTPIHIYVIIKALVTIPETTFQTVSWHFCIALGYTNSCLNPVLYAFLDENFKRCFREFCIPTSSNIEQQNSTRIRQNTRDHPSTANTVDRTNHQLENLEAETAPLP
T2 sequence (P41146 whole entry): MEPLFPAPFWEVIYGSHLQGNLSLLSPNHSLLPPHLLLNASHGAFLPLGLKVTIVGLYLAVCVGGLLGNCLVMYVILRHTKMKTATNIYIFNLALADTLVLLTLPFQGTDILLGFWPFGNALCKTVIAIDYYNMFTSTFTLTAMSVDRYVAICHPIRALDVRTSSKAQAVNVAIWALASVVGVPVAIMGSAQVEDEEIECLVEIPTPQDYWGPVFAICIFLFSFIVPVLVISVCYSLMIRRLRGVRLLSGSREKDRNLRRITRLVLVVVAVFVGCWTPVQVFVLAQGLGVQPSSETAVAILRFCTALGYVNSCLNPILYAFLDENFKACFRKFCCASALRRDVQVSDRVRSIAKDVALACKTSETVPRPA
T3 sequence (P41145 whole entry): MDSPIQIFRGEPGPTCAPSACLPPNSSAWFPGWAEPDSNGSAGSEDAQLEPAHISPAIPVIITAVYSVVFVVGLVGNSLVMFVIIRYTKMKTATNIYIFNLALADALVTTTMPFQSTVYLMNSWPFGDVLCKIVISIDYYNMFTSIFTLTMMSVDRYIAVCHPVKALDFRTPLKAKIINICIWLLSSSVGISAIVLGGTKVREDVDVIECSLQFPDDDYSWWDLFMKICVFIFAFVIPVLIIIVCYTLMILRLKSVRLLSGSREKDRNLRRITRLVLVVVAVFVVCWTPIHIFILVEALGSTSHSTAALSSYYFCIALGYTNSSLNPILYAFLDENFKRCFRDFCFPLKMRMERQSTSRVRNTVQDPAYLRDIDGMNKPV
T1 sequence (P41143 whole entry): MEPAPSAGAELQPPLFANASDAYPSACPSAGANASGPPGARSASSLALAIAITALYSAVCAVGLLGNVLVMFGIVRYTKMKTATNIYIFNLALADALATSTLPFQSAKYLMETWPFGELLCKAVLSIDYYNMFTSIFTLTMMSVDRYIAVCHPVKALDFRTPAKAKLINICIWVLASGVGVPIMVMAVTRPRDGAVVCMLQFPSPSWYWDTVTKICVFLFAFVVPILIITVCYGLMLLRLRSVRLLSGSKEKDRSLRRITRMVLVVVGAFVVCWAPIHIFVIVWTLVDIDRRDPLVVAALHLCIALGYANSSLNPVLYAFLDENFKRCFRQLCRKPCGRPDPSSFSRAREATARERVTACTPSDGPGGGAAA

As to `CCCC1CCC(N2CCC(O)(c3cccc(C(F)(F)F)c3)CC2)CC1` (configuration not stated), the Ki entry in assay [1] was “Not Active”; at Nociceptin receptor [2], 135 nM; in [3] it was 6 µM; at Mu-type opioid receptor [4] it was 46 nM. Moreover, the Selectivity ratio at Mu-type opioid receptor [5] is 0.34.
As to `OC1(c2ccc(Cl)c(C(F)(F)F)c2)CCN(Cc2ccc(C(F)(F)F)cc2)CC1`, on Nociceptin receptor [6], the inhibition is 55%. At Nociceptin receptor [7], the Ki is 1190 nM.
As to `OC1(c2ccc(Cl)c(C(F)(F)F)c2)CCN(CCC(c2ccccc2)c2ccccc2)CC1`, the Ki result in assay [1] was “Not Active”; in assay [8] it was “Not Active”; at Nociceptin receptor [2] it was 225 nM; on Mu-type opioid receptor [4], 4 nM. Also, the Selectivity ratio at Mu-type opioid receptor [5] came out at 0.02.
Regarding `OC1(c2ccc(Cl)c(C(F)(F)F)c2)CCN(CC2CCCCCCC2)CC1`, the Ki was 8.78 µM in assay [9], 47 nM at Nociceptin receptor [2], 1.65 µM in assay [3] and 124 nM at Mu-type opioid receptor [4]. Moreover, at Mu-type opioid receptor [5], the Selectivity ratio was found to be 2.64.
As to `OC1(c2cccc(C(F)(F)F)c2)CCN(Cc2ccc3ccccc3c2)CC1`, the inhibition on Nociceptin receptor [6] was determined as 85%. Further, the Ki on Nociceptin receptor [7] was found to be 715 nM.
As to `CC(C)C1CCC(N2CCC(O)(c3ccc(Cl)c(C(F)(F)F)c3)CC2)CC1` (configuration not stated), the Ki in assay [9] is 10 µM; in assay [8], “Not Active”; on Nociceptin receptor [2], 33 nM; at Mu-type opioid receptor [4], 8 nM. The Selectivity ratio on Mu-type opioid receptor [5] was determined as 0.24.
As to `OC1(c2cccc(C(F)(F)F)c2)CCN(CC2CCCCCCC2)CC1`, the Ki result is “Not Active” in assay [1], 102 nM on Nociceptin receptor [2], 4.24 µM in assay [3] and 113 nM at Mu-type opioid receptor [4]. Moreover, on Mu-type opioid receptor [5], the Selectivity ratio was 1.11.
For `OC1(c2ccc(Cl)c(C(F)(F)F)c2)CCN(Cc2ccc(F)cc2)CC1`, at Nociceptin receptor [6], the inhibition was determined as 90%. The Ki at Nociceptin receptor [7] came to 234 nM.
`N#Cc1ccc(CN2CCC(O)(c3ccc(Cl)c(C(F)(F)F)c3)CC2)cc1`: the inhibition result on Nociceptin receptor [10] is “inactive”. The Ki at Nociceptin receptor [7] was greater than 10000 nM.
Regarding `O=[N+]([O-])c1ccc(CN2CCC(O)(c3ccc(Cl)c(C(F)(F)F)c3)CC2)o1`, the Ki at Nociceptin receptor [7] is greater than 10000 nM. In addition, the inhibition entry at Nociceptin receptor [11] is “inactive”.
Turning to `OC1(c2ccc(Cl)cc2)CCN(CC2CCCCCCC2)CC1`, the Ki result in assay [1] was “Not Active”; in [8], “Not Active”; at Nociceptin receptor [2], 502 nM; on Mu-type opioid receptor [4] it was 626 nM. For the same molecule, the Selectivity ratio on Mu-type opioid receptor [5] was 1.25.
As to `OC1(c2ccc(Cl)c(C(F)(F)F)c2)CCN(Cc2ccc3ccccc3c2)CC1`, at Nociceptin receptor [6], the inhibition is 70%. Also, at Nociceptin receptor [7], the Ki stood at 879 nM.
In the same order, the values of `N#CC1(c2ccccc2)CCN(Cc2ccc(F)cc2)CC1` are 55% and greater than 10000 nM.
In the same order, the values of `N#CC1(c2ccccc2)CCN(Cc2ccc3ccccc3c2)CC1` are 70% and 1110 nM.
As for `N#CC1(c2ccccc2)CCN(Cc2ccc(Cl)c(Cl)c2)CC1`, the inhibition at Nociceptin receptor [6] came to 65%. Also, the Ki on Nociceptin receptor [7] was determined as 1270 nM.
As to `Cc1ccc2ccccc2c1CN1CCC(C#N)(c2ccccc2)CC1`, the Ki on Nociceptin receptor [7] was greater than 10000 nM. The inhibition result on Nociceptin receptor [11] is “inactive”.
`OC1(c2cccc(C(F)(F)F)c2)CCN(CCC(c2ccccc2)c2ccccc2)CC1`: the Ki in assay [9] is 9.39 µM; in assay [8] it was “Not Active”; at Nociceptin receptor [2], 116 nM; at Mu-type opioid receptor [4], 1 nM. Besides, on Mu-type opioid receptor [5], the Selectivity ratio was determined as 0.01.
For the molecule `OC1(c2ccc(Cl)cc2)CCN(Cc2ccc(C(F)(F)F)cc2)CC1`, the inhibition at Nociceptin receptor [6] turned out to be 85%. The Ki on Nociceptin receptor [7] was found to be 307 nM.
In the same order, the values of `OC1(c2ccc(Cl)cc2)CCN(Cc2ccc3ccccc3c2)CC1` are 90% and 153 nM.
For `N#CC1(c2ccccc2)CCN(Cc2cccc3ccccc23)CC1` the same measures were 55% and 827 nM.
With `CC(C)C1CCC(N2CCC(O)(c3cccc(C(F)(F)F)c3)CC2)CC1` (configuration not stated), the Ki in [3] came out at 4.15 µM.
As to `OC1(c2cccc(C(F)(F)F)c2)CCN(Cc2ccc(C(F)(F)F)cc2)CC1`, the Ki on Nociceptin receptor [7] came out at 6520 nM.
As for `OC1(c2cccc(C(F)(F)F)c2)CCN(Cc2ccc(F)cc2)CC1`, at Nociceptin receptor [6], the inhibition turned out to be 80%. Moreover, the inhibition constant Ki on Nociceptin receptor [7] worked out at 692 nM.
For `OC1(c2cccc(C(F)(F)F)c2)CCN(C2CCC3CCCCC3C2)CC1` (configuration not stated), the Ki in [9] is 10 µM; in assay [8], “Not Active”; on Nociceptin receptor [2] it was 12 nM; on Mu-type opioid receptor [4] it was 21 nM. Further, the Selectivity ratio at Mu-type opioid receptor [5] is 1.75.
As to `O=C(COCc1ccccc1)N1CCC(O)(c2ccc(Br)cc2)CC1`, on Nociceptin receptor [6], the inhibition amounted to 50%. Further, the Ki at Nociceptin receptor [7] is greater than 10000 nM.
In the case of `OC1(c2ccc(Cl)c(C(F)(F)F)c2)CCN(C2Cc3ccccc3C2)CC1`, the inhibition constant Ki is 10 µM in assay [9], “Not Active” in [8], 82 nM on Nociceptin receptor [2] and 19 nM at Mu-type opioid receptor [4]. For the same molecule, the Selectivity ratio on Mu-type opioid receptor [5] was determined as 0.23.
